From paper doi:10.1101/2025.01.17.633651, “Markovian State Models uncover Casein Kinase 1 dynamics that govern circadian period” (bioRxiv, 2025) come the findings set out here.

The target of the test is CK1 D132A. As to the kind of experiment: Radioactive (32P-ATP) timecourse kinase assay, CK1 D132A mutant. It counts as biochemical, human. To be noted: 200 μM peptide, 20 nM CK1 (primed) or 200 nM CK1 (unprimed), 750 μM ATP, 30 °C (Figure S15B-C). How it is done: PER FASP region peptides were synthesized and purified to 95% or higher (SABio). Two independent reaction mixtures of 50 μL containing 200 μM of the FASP or in reaction buffer (25 mM Tris pH 7.5, 7.5 mM MgCl2, 1 mM DTT, 0.1 mg/mL BSA) were preincubated for 5 minutes with or without 20 nM CK1 (for primed FASP) or 200 nM CK1 (for unprimed FASP) and the reaction was started by addition of 750 μM of UltraPure ATP (Promega) containing 1–2 μCi of X-^32p ATP (Perkin Elmer). After incubation of the reaction mix at 30 °C, an 8 μL aliquot of the reaction mix was transferred to P81 phosphocellulose paper (Reaction Biology Corp) at the indicated timepoints. The P81 paper was washed three times with 75 mM of orthophosphoric acid and once with acetone. The air-dried P81 paper was counted for Pi incorporation using a scintillation counter (Perkin Elmer) by Cherenkov counting. Results shown are from four independent assays.

As for “RKKKTEVSAHLSSLTLPGKAESVVSLTSQ [unprimed FASP peptide, synthetic mouse PER2 FASP region peptide, unprimed CK1 substrate]”, the “kinase activity, CK1 D132A compared with CK1 WT” value is listed as “dramatic loss in activity”. The entry for “RKKKTEVSAHLSSLTLPGKAEpSVVSLTSQ [primed FASP peptide, synthetic mouse PER2 FASP peptide phosphorylated at the priming serine]” is “more modest effect”.
